According to patent publication US11844846B2, “Styrylbenzothiazole derivatives and uses in imaging methods” (Emory University, priority 2018, dated 2023):
“And” between values parts separate entries of the source, which are not always exact repeats. Identical values can stand only once. “Also recorded” adds a separate entry of the source. Like-named read-outs stand apart in the source and are kept apart here. Blank lines part the entries; values can stand above or below the compound they belong to.

How the values were obtained:
Aβ PFFs [1] = target: T1, Aβ PFFs (Homo sapiens, UniProt P05067); test: counter-screening with Aβ PFFs; format: binding; conditions: result in words
T1 construct: counter-screening with Tau and Aβ PFFs
From the text: (§1) The general strategy that was employed to screen the candidate Lewy body PET agents is summarized as follows: (a) To perform in vitro binding assay with Pre-formed fibrils (PFFs) of α-Syn and counter-screening with Tau and Aβ PFFs; (b) To test the positive compounds in the neuronal models with aggregated α-Syn, Tau or […]; (c) To screen with the brain slides from α-Syn mutant A53T virus injected WT mice, and counter-screen with aged 3×Tg (containing both senile plaques and NFT), and aged Tau P301S (NFT) brain sections; (d) to screen the patient brain sections from DLB and MSA against AD; (e) To determine the binding kinetics between α-Syn PFFs and positive hits; (f) To determine the candidates in vivo brain/plasma (B/P) ratios and the brain permeability; (g) To determine the in vivo PET images in α-Syn A53T with candidates and compare its images in 5XFAD and Tau P301S mice.
(§2) To perform in vitro binding assay, commercial compounds were screened (See FIG. 7B).
(§3) A series of derivatives were synthesized by including an amino group and a methyl group on benzothiazole to increase the brain permeability and fluorescent signals. The derivatives were subsequently subjected to α-Syn PFFs binding assay and counter-screening with Tau and Aβ PFFs. […] In a few days, the positive compounds were added in the primary neurons with indicated aggregates and analyzed under fluorescent microscopy. […]

[2] = in vivo PK study of compound 13 decaying into F0502B; conditions: after injection of compound 13, 15 min to 90 min
[3] = target: pre-formed fibrils (PFFs) of α-Synuclein (Homo sapiens, UniProt P37840); test: in vitro binding assay with α-Syn PFFs; conditions: fibrils binding assay, result in words
From the text: as §1, §2
(§4) A series of derivatives were synthesized by including an amino group and a methyl group on benzothiazole to increase the brain permeability and fluorescent signals. The derivatives were subsequently subjected to α-Syn PFFs binding assay and counter-screening with Tau and Aβ PFFs. […] These compounds were screened on the neuronal α-Syn, Tau and Aβ aggregation model for the binding selectivity. Primary cultured neurons were infected with AAV-α-Syn, AAV-Tau FL for 7 days, then treated with α-Syn, Tau or Aβ PFFs. In a few days, the positive compounds were added in the primary neurons with indicated aggregates and analyzed under fluorescent microscopy.
To perform in vitro binding assay, compounds were screened. […] An amino group and a methyl group in the benzothazole were added to increase its brain permeability and fluorescent signals. […] The synthesized derivatives were subsequently subjected to the α-Syn PFFs binding and counter-screen of Tau and Aβ PFFs as described above.

Tau PFFs [4] = target: T2, Tau PFFs (Homo sapiens, UniProt P10636); test: counter-screening with Tau PFFs; format: binding; conditions: result in words
From the text: as §1, §2, §3

Aβ PFFs [5] = target: T1, Aβ PFFs; test: fluorescence spectroscopy titration with Aβ PFFs; format: binding; conditions: fluorescence spectroscopy titration; read-out: binding constant Kd for Aβ PFFs
Protocol: (§5) A fluorescent titration assay was conducted. The fluorescent emission intensities were determined with 0.08 μM of various fibrils in the presence of 5 μM of the small molecules.
(§6) To further investigate the selected compounds binding activities with α-Syn PFFs, fluorescence spectroscopy titrations were conducted to quantitatively measure compounds emission intensity when interacting with different concentrations of α-Syn PFFs. The UV spectrum of each compound was determined and selected for the optimal wavelength to conduct the fluorescence spectroscopic studies.

[6] = target: T3, senile plaques in 5×FAD and 3×Tg mice brain sections (Homo sapiens, UniProt P05067); test: staining of mouse brain sections with senile plaques; format: binding
T3 construct: Aβ-enriched senile plaques; from tissue; host or cells: brain sections of 5×FAD and 3×Tg mice

[7] = tested on: senile plaques or NFT in AD; test: ex vivo screening on AD patient brain sections; format: binding, human
From the text: (§7) Ex vivo screening was extended into human DLB, MSA and AD patient samples. […] Since there are detectable α-Syn aggregates in AD patient brains, these compounds colocalized with p-S129 positive α-Syn inclusions.
(§8) The ex vivo screening was extended into human DLB, MSA and AD patient samples. Neurodegenerative disease of DLB (dementia with Lewy Bodies) and MSA belongs to synucleinopathies with well-defined Lewy bodies.

[8] = target: T4, LBs and LNs in DLB and MSA patient brains (Homo sapiens, UniProt P37840); test: ex vivo screening on DLB and MSA patient brain sections; format: binding
T4 construct: from tissue; host or cells: brain sections of DLB and MSA patients
From the text: as §7, §8

[9] = tested on: NFT in Tau P301S and 3×Tg mice brain sections; test: staining of mouse brain sections with NFT; format: binding
Protocol: (§9) To further explore whether the positive compounds selectively bind to the Lewy bodies, α-Syn A53T patient-derived mutant virus injected WT mice brain slices were employed. These mice display extensive Lewy bodies in the SN.
(§10) To further explore whether the positive compounds selectively bind to the Lewy bodies, a α-Syn A53T patient-derived mutant virus was injected into WT mice brain slices. These mice display extensive Lewy bodies in the Substantial nigra (SN). Moreover, P301S mice expressed neurofibrillary tangles (NFT). The Lewy bodies were labeled with p-α-Syn S129 antibody and the positive aggregates were also labeled with the fluorescent signals from the small molecules. […] However, it was worth noting that almost none of the tested compounds were reactive with NFT.

α-Syn PFFs = α-Syn PFFs (Homo sapiens, UniProt P37840); test: fluorescence spectroscopy titration with α-Syn PFFs; format: binding; conditions: for binding to α-Syn PFFs by fluorescent emission intensity: 0.08 μM fibrils, 5 μM small molecule, result in words
Protocol: as §5, §6

Tau PFFs [10] = target: T2, Tau PFFs; test: fluorescence spectroscopy titration with Tau PFFs; format: binding; conditions: fluorescence spectroscopy titration; read-out: binding constant Kd for Tau PFFs
Protocol: as §5, §6

[11] = target: T5, Lewy bodies in α-Syn A53T virus injected WT mice brain slices (Homo sapiens, UniProt P37840, A53T); test: staining of mouse brain slices with Lewy bodies; format: binding
T5 construct: from tissue; host or cells: brain (substantia nigra) of wild-type mice injected with α-Syn A53T virus
Protocol: as §9, §10

α-Syn aggregated neurons = test: neuronal α-Syn aggregation model, fluorescent microscopy; format: cell-based; conditions: primary cultured neurons, AAV-α-Syn plus α-Syn PFFs
From the text: as §4
(§11) Primary cultured neurons were infected with AAV-α-Syn, AAV-Tau FL or AAV-APP fragment virus for 7 days, and then treated with α-Syn, Tau or Aβ PFFs by following the described protocols (Volpicelli-Daley et al., 2014). In a few days, the positive compounds were added in the primary neurons with indicated aggregation.

[12] = plasma-brain ratio study / in vivo PK of EU compounds; set-up: species or system mouse; conditions: for B/P: single animals; for brain permeability: i.v.
Protocol: To address whether the selected compounds penetrate the brain, a plasma-brain ratio study was performed with EU04-03A, EU05-02A and EU05-02B.
To test whether these compounds are brain permeable in vivo, in vivo PK profiling was conducted to determine brain exposure.

[13] = tested on: neurons with Aβ or Tau aggregates; test: neuronal Aβ and Tau aggregation models, fluorescent microscopy; format: cell-based; conditions: primary cultured neurons
From the text: as §4, §11

T1 sequence (P05067 672-713 limits assumed): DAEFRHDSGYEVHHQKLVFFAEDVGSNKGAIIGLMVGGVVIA
T2 sequence (P10636 whole entry): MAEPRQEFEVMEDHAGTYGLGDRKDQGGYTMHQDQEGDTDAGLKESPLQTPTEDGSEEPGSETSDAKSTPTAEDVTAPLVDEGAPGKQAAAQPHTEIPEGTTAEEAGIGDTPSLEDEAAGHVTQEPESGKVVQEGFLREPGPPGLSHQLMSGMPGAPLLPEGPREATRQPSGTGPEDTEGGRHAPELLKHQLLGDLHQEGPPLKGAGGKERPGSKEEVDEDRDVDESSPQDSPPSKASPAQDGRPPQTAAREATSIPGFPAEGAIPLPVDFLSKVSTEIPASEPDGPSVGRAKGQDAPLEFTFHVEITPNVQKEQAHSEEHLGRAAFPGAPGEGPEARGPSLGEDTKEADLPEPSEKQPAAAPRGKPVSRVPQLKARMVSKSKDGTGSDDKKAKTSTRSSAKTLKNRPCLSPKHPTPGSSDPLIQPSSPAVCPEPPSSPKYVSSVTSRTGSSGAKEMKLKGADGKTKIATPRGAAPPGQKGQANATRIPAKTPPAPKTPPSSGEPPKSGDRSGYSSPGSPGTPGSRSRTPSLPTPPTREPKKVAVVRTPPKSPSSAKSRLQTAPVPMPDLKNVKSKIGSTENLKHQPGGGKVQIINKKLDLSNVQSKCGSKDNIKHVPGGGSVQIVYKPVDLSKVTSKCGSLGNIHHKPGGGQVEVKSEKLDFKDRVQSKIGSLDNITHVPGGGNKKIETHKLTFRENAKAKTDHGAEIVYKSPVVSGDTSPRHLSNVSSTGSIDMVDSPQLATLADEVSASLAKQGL
T3 sequence (P05067 672-713 limits assumed): as the sequence (P05067 672-713 limits assumed) above

Compound: Cc1cc2nc(/C=C/c3ccc(OC(=O)N(C)C)c(Br)c3)sc2cc1N(C)CCOCCF [compound 13, (E)-2-bromo-4-(2-(6-((2-(2-fluoroethoxy)ethyl)(methyl)amino)-5-methylbenzo[d]thiazol-2-yl)vinyl)phenyl dimethylcarbamate]
- binding toward Aβ PFFs (Aβ PFFs [1]): did not specifically interact with α-Syn, Aβ or Tau aggregates
- plasma concentration course [2]: decreased in the plasma
- binding activity toward α-Syn PFFs [3]: did not specifically interact with α-Syn, Aβ or Tau aggregates
- binding toward Tau PFFs (Tau PFFs [4]): did not specifically interact with α-Syn, Aβ or Tau aggregates

Compound: Cc1cc2nc(/C=C/c3ccc(O)c(Br)c3)sc2cc1N(C)C [EU-005-02B, (E)-2-bromo-4-(2-(6-(dimethylamino)-5-methylbenzo[d]thiazol-2-yl)vinyl)phenol]
- Kd (Aβ PFFs [5]): 850 nM
- staining of senile plaques [6]: barely recognized senile plaques or NFT
- staining of senile plaques or NFT (Aβ, AT8 positive aggregates) [7]: barely co-stained with anti-AD or AT8 positive aggregate signals
- staining of senile plaques or NFT (Aβ, AT8 positive aggregates) ([7]; listed as EU05-02B): did not stain senile plaques or NFT in AD
- staining of LBs and LNs [8]: robust signals with LBs and LNs
- staining of LBs and LNs ([8]; listed as EU05-02B): robust signals with LBs and LNs in DLB and MSA patient brains
- staining of NFT [9]: barely recognized senile plaques or NFT
- binding to α-Syn PFFs by fluorescent emission intensity (α-Syn PFFs): stronger binding affinity toward α-Syn PFFs versus Tau and Aβ PFFs; also recorded: dose-dependent escalation of the emission intensities
- binding to α-Syn PFFs by fluorescent emission intensity (α-Syn PFFs; listed as EU05-02B): partial binding selectivity toward α-Syn PFFs versus Aβ and Tau fibrils
- binding to α-Syn PFFs by fluorescent emission intensity (α-Syn PFFs; listed as EU-05-02B): showed specific association with the PFFs
- Kd (α-Syn PFFs; fluorescence spectroscopy titration, read-out: binding constant Kd for α-Syn PFFs): 170 nM
- Kd (Tau PFFs [10]): 3700 nM
- staining of Lewy bodies (p-α-Syn S129 positive) [11]: concrete aggregates were also stained with the fluorescent signals from EU05-02B
- fluorescent signal in α-Syn aggregated neurons (α-Syn aggregated neurons): positive for selective binding
- fluorescent signal in α-Syn aggregated neurons (α-Syn aggregated neurons; listed as EU05-02B): positive signals in α-Syn aggregated neurons
- B/P ([12]; Male ICH Mouse, 5 mg/kg IV, 0.50 h, 5 mg/kg): 2.00 and 2.47 and 1.16
- B/P ([12]; Male ICH Mouse, 5 mg/kg IV, 1.00 h, 5 mg/kg): 2.72 and 6.12 and 4.48
- B/P ([12]; Male ICH Mouse, 5 mg/kg IV, 2.00 h, 5 mg/kg): 5.13 and 13.88 and 25.06
- B/P ([12]; Male ICH Mouse, 5 mg/kg IV, 4.00 h, 5 mg/kg): 29.74 and 5.63 and 21.06
- B/P ([12]; Male ICH Mouse, 5 mg/kg IV, 8.00 h, 5 mg/kg): 57.33 and 78.00 and 36.00
- Kp at 0.5 h ([12]; male, ICH, mouse, brain, iv, 5 mg/kg, Male ICH Mouse, 5 mg/kg IV, 0.50 h, read-out: B/P Mean): 1.88
- Kp at 1 h ([12]; male, ICH, mouse, brain, iv, 5 mg/kg, Male ICH Mouse, 5 mg/kg IV, 1.00 h, read-out: B/P Mean): 4.44
- Kp at 2 h ([12]; male, ICH, mouse, brain, iv, 5 mg/kg, Male ICH Mouse, 5 mg/kg IV, 2.00 h, read-out: B/P Mean): 14.7
- Kp at 4 h ([12]; male, ICH, mouse, brain, iv, 5 mg/kg, Male ICH Mouse, 5 mg/kg IV, 4.00 h, read-out: B/P Mean): 18.8
- Kp at 8 h ([12]; male, ICH, mouse, brain, iv, 5 mg/kg, Male ICH Mouse, 5 mg/kg IV, 8.00 h, read-out: B/P Mean): 57.1
- in vivo half-life / decay ([12]; mice, i.v. 5 mg/kg, result in words): long in vivo half-life
- brain permeability ([12]; mice, result in words): time-dependent escalation of B/P ratios; also recorded: brain permeability is much higher as compared to EU-005-02A
- brain permeability ([12]; mice, result in words, listed as EU05-02B): swiftly penetrated the brain and exhibited much higher brain permeability compared to EU05-02A
- fluorescent signal in neurons with Aβ or Tau aggregates [13]: negligible effects in neurons with Aβ or Tau aggregates

- binding toward Tau PFFs (Tau PFFs [4]): not Tau fibrils
Compound: COc1ccc(/C=C/c2nc3cc(C)c(N(C)CCOCCF)cc3s2)cc1Br [compound 8, (E)-2-(3-bromo-4-methoxystyryl)-N-(2-(2-fluoroethoxy)ethyl)-N,5-dimethylbenzo[d]thiazol-6-amine]
- binding toward Aβ PFFs (Aβ PFFs [1]): somehow interacted with both α-Syn and Aβ
- binding activity toward α-Syn PFFs [3]: somehow interacted with both α-Syn and Aβ
